# Assay results as given in patent US8865704B2, “Wnt pathway antagonists” (Siena Biotech S.p.A., priority 2009, dated 2014).
# Experiments:
# DBTRG cells = assay: Soft agar anchorage independent assay; assay type: cell-based; conditions: 504 h, colonies scored 3 weeks later, read-out: 1050 value in the soft agar assay
# Procedure: The pharmacological activity of the compounds of the invention may be tested in vitro for growth inhibition against tumour cell lines. Such cell lines may, for example be representative of glioblastoma (such as DBTRG-05MG), or colorectal (for example DLD-1, HCT116) cancer. The different genetic background of the cancer cell will facilitate to understand to which level of the pathway the compounds work. If the cells harbour a truncated APC allele, the destruction complex activity is affected; if cells carry a gain of function mutation in the β-catenin gene, which prevents β-catenin protein degradation, this leads to constitutive activation of downstream genes. There are many assays available for testing the growth inhibition.
# Soft Agar Anchorage Independent Assay
# DBTRG cells were seeded into a 24-well format in the presence of carrier alone or compound (0.6% DMSO (v/v)). Each well is composed of two agar layers: the bottom layer consists of 0.6% Agar while the top has 0.35% Agar plus cells and compound. Cells (2500 per well) were incubated with 7 points dilution compound the day of the plating and the colonies were scored 3 weeks later after o/n staining with MTT solution. Imaging and counting of the colonies was done with the GelCount™ instrument (Oxford Optronix, UK). For IC50 determination the data were expressed as % of control, values were calculated using XLFit version 4.2, with a four parameters sigmoid function (XLFit model 205).
# Wnt/β-catenin pathway = assay: Wnt reporter assay (TCF-Luciferase, Firefly) in DBTRG-05MG cells; assay type: cell-based; conditions: Homo sapiens, 24 hours after compound addition
# Summary of the method: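 DBTRG-05MG cells carrying a 4×TCF-driven firefly luciferase reporter, kept under Zeocin or Zeocin plus Hygromicin selection. Compounds added 36 hours after plating at 8 points from 60 μM to 0.185 μM (0.6% DMSO), triplicate, for 24 hours. Firefly and Renilla luminescence each expressed as % of control; IC50 from four-parameter sigmoid fit.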
SMILES,IC50 (DBTRG cells),IC50 (Wnt/β-catenin pathway)
"COc1ccc2[nH]c(=O)n(C[C@H]3CC[C@H](C(=O)N4CCN(C(=O)C(C)C)CC4)CC3)c(=O)c2c1 [Example 3, 3-[trans-4-(4-Isobutyryl-piperazine-1-carbonyl)-cyclohexylmethyl]-6-methoxy-1H-quinazoline-2,4-dione]",0.9 to 30 µM,0.3 to 30 µM
"CCCC(=O)N1CCN(C(=O)[C@H]2CC[C@H](Cn3c(=O)c4ccccc4n(C)c3=O)CC2)CC1 [Example 5, 3-[trans-4-(4-Butyryl-piperazine-1-carbonyl)-cyclohexylmethyl]-1-methyl-1H-quinazoline-2,4-dione]",0.9 to 30 µM,0.3 to 30 µM
"Cn1c(=O)n(C[C@H]2CC[C@H](C(=O)N3CCOCC3)CC2)c2cc(C(F)(F)F)ccc21 [Example 10, 1-Methyl-3-[trans-4-(morpholine-4-carbonyl)-cyclohexylmethyl]-5-trifluoromethyl-1,3-dihydro-benzoimidazol-2-one]",0.9 to 30 µM,0.3 to 30 µM
O=C(C1CCC(Cn2c(=O)[nH]c3ccccc3c2=O)CC1)N1CCN(c2ccccc2)CC1 (stereo not drawn) [Example 18],0.9 to 30 µM,0.3 to 30 µM
O=c1[nH]c2ccccc2c(=O)n1C[C@H]1CC[C@H](C(=O)N2CCN(c3ccc(F)cc3)CC2)CC1 [Example 20],0.9 to 30 µM,0.3 to 30 µM
COc1ccccc1N1CCN(C(=O)[C@H]2CC[C@H](Cn3c(=O)[nH]c4ccccc4c3=O)CC2)CC1 [Example 21],0.9 to 30 µM,0.3 to 30 µM
O=c1[nH]c2ccc(Cl)cc2c(=O)n1C[C@H]1CC[C@H](C(=O)N2CCN(c3ccccc3)CC2)CC1 [Example 26],0.9 to 30 µM,0.3 to 30 µM
CC(=O)N1CCN(C(=O)[C@H]2CC[C@H](Cn3c(=O)[nH]c4ccc(Cl)cc4c3=O)CC2)CC1 [Example 27],0.9 to 30 µM,0.3 to 30 µM
O=C(C1CCCC1)N1CCN(C(=O)[C@H]2CC[C@H](Cn3c(=O)[nH]c4ccccc4c3=O)CC2)CC1 [Example 29],0.9 to 30 µM,0.3 to 30 µM
O=C(c1cccs1)N1CCN(C(=O)[C@H]2CC[C@H](Cn3c(=O)[nH]c4ccccc4c3=O)CC2)CC1 [Example 37],0.9 to 30 µM,0.3 to 30 µM
O=C(C1CCC(Cn2c(=O)[nH]c3ccccc3c2=O)CC1)N1CCN(C(=O)C2CC2)CC1 (stereo not drawn) [Example 47],0.9 to 30 µM,0.3 to 30 µM
O=C(c1ccco1)N1CCN(C(=O)C2CCC(Cn3c(=O)[nH]c4ccccc4c3=O)CC2)CC1 (stereo not drawn) [Example 48],0.9 to 30 µM,0.3 to 30 µM
Cn1c(=O)n(C[C@H]2CC[C@H](C(=O)N3CCN(C(=O)C4CC4)CC3)CC2)c(=O)c2ccccc21 [Example 56],0.9 to 30 µM,0.3 to 30 µM
O=c1[nH]c2ccccc2c(=O)n1C[C@H]1CC[C@H](C(=O)N2CCN(c3cnccn3)CC2)CC1 [Example 57],0.9 to 30 µM,0.3 to 30 µM
CC(C)C(=O)N1CCN(C(=O)[C@H]2CC[C@H](Cn3c(=O)[nH]c4ccccc43)CC2)CC1 [Example 58],0.9 to 30 µM,0.3 to 30 µM
O=C(CC1CCCCC1)N1CCN(C(=O)[C@H]2CC[C@H](Cn3c(=O)[nH]c4ccccc4c3=O)CC2)CC1 [Example 59],0.9 to 30 µM,0.3 to 30 µM
COc1ccc2c(c1)c(=O)n(C[C@H]1CC[C@H](C(=O)N3CCN(C(=O)n4ccnc4)CC3)CC1)c(=O)n2C [Example 171],,0.3 to 30 µM
COc1ccc2c(c1)c(=O)n(C[C@H]1CC[C@H](C(=O)Nc3ccncc3C)CC1)c(=O)n2C [Example 172],,0.3 to 30 µM
COc1ccc2c(c1)c(=O)n(C[C@H]1CC[C@H](C(=O)Nc3ccc(F)nc3)CC1)c(=O)n2C [Example 173],,0.3 to 30 µM

SMILES,IC50 (DBTRG cells),IC50 (Wnt/β-catenin pathway)
COc1ccc2c(c1)c(=O)n(C[C@H]1CC[C@H](C(=O)Nc3cncc(F)c3)CC1)c(=O)n2C [Example 174],,0.3 to 30 µM
CCOC(=O)N1CCN(C(=O)[C@H]2CC[C@H](Cn3c(=O)c4cc(OC)ccc4n(C)c3=O)CC2)CC1 [Example 176],,0.3 to 30 µM
COc1ccc2c(c1)c(=O)n(C[C@H]1CC[C@H](C(=O)Nc3ccnc(OC)c3)CC1)c(=O)n2C [Example 177],,0.3 to 30 µM
COc1cccc2c1CN(C[C@H]1CC[C@H](C(=O)N3CCN(c4nccs4)CC3)CC1)C(=O)N2 [Example 178],,0.3 to 30 µM
COc1ccc2c(c1)c(=O)n(C[C@H]1CC[C@H](C(=O)N3CCN(C(C)=O)CC3)CC1)c(=O)n2C(F)F [Example 179],,0.3 to 30 µM
CC(=O)N1CCN(C(=O)[C@H]2CC[C@H](Cn3c(=O)n(C)c4ccc(Cl)cc43)CC2)CC1 [Example 180],,0.3 to 30 µM
Cn1c(=O)n(C[C@H]2CC[C@H](C(=O)N3CCOCC3)CC2)c2cc(Cl)ccc21 [Example 181],,0.3 to 30 µM
COC(=O)N1CCN(C(=O)[C@H]2CC[C@H](Cn3c(=O)n(C)c4ccc(OC)cc43)CC2)CC1 [Example 182],,0.3 to 30 µM
COCC(=O)N1CCN(C(=O)[C@H]2CC[C@H](Cn3c(=O)n(C)c4ccc(OC)cc43)CC2)CC1 [Example 183],,0.3 to 30 µM
COc1ccc2c(c1)n(C[C@H]1CC[C@H](C(=O)N3CCN(C(=O)C(C)C)CC3)CC1)c(=O)n2C [Example 184],,0.3 to 30 µM
COc1ccc2c(c1)n(C[C@H]1CC[C@H](C(=O)N3CCN(C(=O)c4cncn4C)CC3)CC1)c(=O)n2C [Example 185],,0.3 to 30 µM
COc1cc2c(cc1Cl)n(C[C@H]1CC[C@H](C(=O)N3CCOCC3)CC1)c(=O)n2C [Example 186],,0.3 to 30 µM
COc1ccc2c(c1)c(=O)n(C[C@H]1CC[C@H](C(=O)Nc3ccc4ncccc4c3)CC1)c(=O)n2C [Example 187],,0.3 to 30 µM
COc1ccc2c(c1)c(=O)n(C[C@H]1CC[C@H](C(=O)Nc3cccc4ncccc34)CC1)c(=O)n2C [Example 188],,0.3 to 30 µM
COc1ccc2c(c1)c(=O)n(C[C@H]1CC[C@H](C(=O)Nc3ccc(-c4ncco4)cc3)CC1)c(=O)n2C [Example 189],,0.3 to 30 µM
COc1ccc2c(c1)c(=O)n(C[C@H]1CC[C@H](C(=O)Nc3cnc4ccccn34)CC1)c(=O)n2C [Example 190],,0.3 to 30 µM
COc1cccc(NC(=O)[C@H]2CC[C@H](Cn3c(=O)c4cc(OC)ccc4n(C)c3=O)CC2)c1 [Example 191],,0.3 to 30 µM
COc1ccc2c(c1)n(C[C@H]1CC[C@H](C(=O)N3CCN(C(=O)C4CCCO4)CC3)CC1)c(=O)n2C (stereo partly drawn) [Example 192],,0.3 to 30 µM
COc1ccc2c(c1)c(=O)n(C[C@H]1CC[C@H](C(=O)Nc3ccon3)CC1)c(=O)n2C [Example 193],,0.3 to 30 µM

SMILES,IC50 (DBTRG cells),IC50 (Wnt/β-catenin pathway)
COc1ccc2c(c1)c(=O)n(C[C@H]1CC[C@H](C(=O)Nc3ccc4nc(C)oc4c3)CC1)c(=O)n2C [Example 194],,0.3 to 30 µM
COc1ccc2c(c1)c(=O)n(C[C@H]1CC[C@H](C(=O)N3CCN(c4ccncc4)CC3)CC1)c(=O)n2C [Example 195],,0.3 to 30 µM
CCOc1ccc2c(c1)c(=O)n(C[C@H]1CC[C@H](C(=O)Nc3ccncc3)CC1)c(=O)n2C [Example 196],,0.3 to 30 µM
CCOc1ccc2c(c1)c(=O)n(C[C@H]1CC[C@H](C(=O)N3CCN(c4ccncc4)CC3)CC1)c(=O)n2C [Example 197],,0.3 to 30 µM
CCOc1ccc2c(c1)c(=O)n(C[C@H]1CC[C@H](C(=O)N3CCN(C(=O)COC)CC3)CC1)c(=O)n2C [Example 198],,0.3 to 30 µM
CCOc1ccc2c(c1)c(=O)n(C[C@H]1CC[C@H](C(=O)N3CCN(C(=O)C4CCCC4)CC3)CC1)c(=O)n2C [Example 199],,0.3 to 30 µM
CCOc1ccc2c(c1)c(=O)n(C[C@H]1CC[C@H](C(=O)N3CCN(C(C)=O)CC3)CC1)c(=O)n2C [Example 200],,0.3 to 30 µM
COc1ccc2c(c1)c(=O)n(C[C@H]1CC[C@H](C(=O)Nc3cccc4cccnc34)CC1)c(=O)n2C [Example 201],,0.3 to 30 µM
CC(=O)N1CCN(C(=O)[C@H]2CC[C@H](Cn3c(=O)n(C)c4ccc(C(F)(F)F)cc43)CC2)CC1 [Example 202],,0.3 to 30 µM
COC(=O)N1CCN(C(=O)[C@H]2CC[C@H](Cn3c(=O)n(C)c4ccc(C)nc43)CC2)CC1 [Example 203],,0.3 to 30 µM
COCC(=O)N1CCN(C(=O)[C@H]2CC[C@H](Cn3c(=O)n(C)c4ccc(C)nc43)CC2)CC1 [Example 204],,0.3 to 30 µM
COC(=O)N1CCN(C(=O)[C@H]2CC[C@H](Cn3c(=O)n(C)c4ccc(OC)nc43)CC2)CC1 [Example 205],,0.3 to 30 µM
CCOc1ccc2c(c1)c(=O)n(C[C@H]1CC[C@H](C(=O)N3CCN(C(=O)c4cncn4C)CC3)CC1)c(=O)n2C [Example 206],,0.3 to 30 µM
CC(=O)N1CCN(C(=O)[C@H]2CC[C@H](Cn3c(=O)n(C)c4ccc(C)nc43)CC2)CC1 [Example 207],,0.3 to 30 µM
COCC(=O)N1CCN(C(=O)[C@H]2CC[C@H](Cn3c(=O)n(C)c4ccc(OC)nc43)CC2)CC1 [Example 208],,0.3 to 30 µM
COc1cccc(NC(=O)[C@H]2CC[C@H](Cn3c(=O)n(C)c4ccc(OC)nc43)CC2)c1 [Example 209],,0.3 to 30 µM
COc1ccc2c(c1)n(C[C@H]1CC[C@H](C(=O)N3CCN(C(=O)c4cc(C)nn4C)CC3)CC1)c(=O)n2C [Example 210],,0.3 to 30 µM
COc1ccc2c(c1)n(C[C@H]1CC[C@H](C(=O)N3CCN(C(=O)c4nccn4C)CC3)CC1)c(=O)n2C [Example 211],,0.3 to 30 µM
